Where “and” joins values, the source holds several entries; their conditions need not be identical. Equal entries are not always repeated.
Tested on: TKCC10 human PDX tumors
Test: TKCC10 human model, bulk modulus by unconfined compression (Extended Data Fig. 5e)
Type: in vivo, mouse
Design: key to Bulk modulus (stiffness) by unconfined compression testing: bulk elastic modulus in kPa
Settings: for Bulk modulus (stiffness) by unconfined compression testing: Extended Data 5E, endpoint human PDX tumours, individual animals
Method: Unconfined compression of in vivo tissue samples was carried out on 2–3-mm cross-sectional slices using a TA Instruments Dynamic Hybrid Rheometer (DHR-3, TA Instruments). Tissue samples were placed between upper and lower parallel plate geometries. A constant linear compressive rate of 5 µm s^−1 was applied to the samples and axial force (N) and gap (mm) were collected every 0.01 s. Data were processed and a stress–strain curve for each replicate was obtained. Bulk elastic modulus (kPa) was obtained as the gradient of the linear region of the stress–strain curve corrected for cross-sectional area of sample. Data points represent individual biological replicates.
Subcutaneous PDX studies were performed by implanting early passage PDX pieces (~4 mm^3) or TKCC10 CCs (1.5 × 10^6 cells per mouse in 100 μl PBS/Matrigel 1:1) into female (PDX) or male (TKCC10) 8-week-old immunocompromised nude Balb/c-Fox1nuAusb mice subcutaneously on the left flank. For the duration of the study, mice were kept in conventional caging with environmental enrichment, access to standard chow, water ad libitum and 12-h light–dark cycle at ambient temperature and humidity. […] Tumor size was monitored every second day by calipers. Tumor volume was calculated using the formula (length × width^2)/2. […]
Extended Data Fig. 5 PXS-5505 in combination with gemcitabine in vivo. a. […] Signal is defined as the enzyme activity in the aorta, while noise is measured in the presence of a high concentration (300 µM) BAPN to abolish any lysyl oxidase family activity. […] FITC-dextran (molecular weight: 10 kDa) signal quantification from KPC tumor end point from each treatment group (vehicle n = 3 biologically independent animals, PXS-5505 n = 5 biologically independent animals, Gem n = 5 biologically independent animals, PXS-5505 + Gem n = 5 biologically independent animals). […] P-values determined by Welchs t-test. […] Quantification of red birefringent (mature) collagen fibers from human PDXs at end point after 3 cycles of treatment, treated as indicated. […] P values determined by Welchs t-test. g. […]

Compound	Bulk modulus (stiffness) by unconfined compression testing	tumor bulk stiffness (TKCC10 model, three rounds of therapy)
Nc1ccn([C@@H]2O[C@H](CO)[C@@H](O)C2(F)F)c(=O)n1 [Gem, gemcitabine]	110.51 and 99.1 and 103.39 and 48.75 and 58.11	significant increase in tumor bulk stiffness
Cl.Cl.NC/C=C(\F)CS(=O)(=O)c1cccc2cccnc12.O [PXS-5505, (Z)-3-fluoro-4-(quinolin-8-ylsulfonyl)but-2-en-1-amine dihydrochloride monohydrate]	8.16 and 16.78 and 14.19 and 5.55 and 12.49	–
